Here are results for seven compounds from patent US10294227B2, “Compounds” (UNIVERSITY COURT OF THE UNIVERSITY OF EDINBURGH, priority 2015, dated 2019).

Where two headings read alike, the source gives them in different places. Where only a bound is given, the exact number is not on record here.

One data set has as its system MDA-MB-231 cells. Description: Cell viability assay (PrestoBlue). In kind it is cell-based. Particulars: Homo sapiens, MDA-MB-231, 120 h, read-out: Antiproliferative activity (EC50) MDA-MB-231; cell viability at day 5.
In another data set the test system is MCF7 cells. The data set can be described thus: Cell viability assay (PrestoBlue). It is filed as cell-based. Particulars: Homo sapiens, MCF7, 120 h; cell viability at day 5; read-out: Antiproliferative activity (EC50) MCF7.
Data set [1] has as its system SYF fibroblasts (deficient for Src, Yes, and Fyn). The data set can be described thus: Cell viability assay (PrestoBlue). It is filed as cell-based, murine. The following applies: Mus musculus, Fibroblast, 120 h; cell viability at day 5; read-out: Antiproliferative activity (EC50) SYF (−/− Src).
A further data set concerns the target PDGFRa (Homo sapiens (Human), UniProt P16234). The data set can be described thus: Kinase screening assay (IC50). In kind it is biochemical.
A further data set addresses RET (Homo sapiens (Human), UniProt P07949). Description: Kinase screening assay (IC50).
The target of another data set is mTOR (Homo sapiens (Human), UniProt P42345). Description: Kinase screening assay (IC50). It is filed as biochemical.
Another data set has as its target LCK (Homo sapiens (Human), UniProt P06239). The data set can be described thus: Kinase screening assay (IC50).
The next data set addresses YES (Homo sapiens (Human), UniProt P07947). Description: Kinase screening assay (IC50).
The target in a further data set is SRC (Homo sapiens (Human), UniProt P12931). Description: Kinase screening assay (IC50). In kind it is biochemical. The following applies: for IC50: 10 μM ATP, read-out: Target inhibition (IC50) SRC.
Sequence of SRC (P12931 whole entry, looked up): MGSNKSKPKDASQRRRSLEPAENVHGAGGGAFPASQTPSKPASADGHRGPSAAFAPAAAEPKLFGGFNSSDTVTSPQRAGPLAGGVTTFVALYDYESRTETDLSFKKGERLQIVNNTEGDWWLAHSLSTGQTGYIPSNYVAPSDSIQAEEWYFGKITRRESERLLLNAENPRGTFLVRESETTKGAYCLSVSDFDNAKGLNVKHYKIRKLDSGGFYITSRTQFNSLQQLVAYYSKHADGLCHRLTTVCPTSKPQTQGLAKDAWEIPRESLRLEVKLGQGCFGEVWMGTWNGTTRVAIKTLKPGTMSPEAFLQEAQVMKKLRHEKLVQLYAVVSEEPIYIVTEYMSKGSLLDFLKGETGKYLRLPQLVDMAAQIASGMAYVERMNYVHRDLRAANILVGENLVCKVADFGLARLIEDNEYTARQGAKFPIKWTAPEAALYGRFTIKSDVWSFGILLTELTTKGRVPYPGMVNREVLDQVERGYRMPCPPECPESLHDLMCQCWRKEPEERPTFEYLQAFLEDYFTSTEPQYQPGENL
The target of another data set is KIT (Homo sapiens (Human), UniProt P10721). The data set can be described thus: Kinase screening assay (IC50).
For the next data set, the target named is ABL (Homo sapiens (Human), UniProt P00519). Description: Kinase screening assay (IC50). In kind it is biochemical.
Sequence of ABL (P00519 whole entry): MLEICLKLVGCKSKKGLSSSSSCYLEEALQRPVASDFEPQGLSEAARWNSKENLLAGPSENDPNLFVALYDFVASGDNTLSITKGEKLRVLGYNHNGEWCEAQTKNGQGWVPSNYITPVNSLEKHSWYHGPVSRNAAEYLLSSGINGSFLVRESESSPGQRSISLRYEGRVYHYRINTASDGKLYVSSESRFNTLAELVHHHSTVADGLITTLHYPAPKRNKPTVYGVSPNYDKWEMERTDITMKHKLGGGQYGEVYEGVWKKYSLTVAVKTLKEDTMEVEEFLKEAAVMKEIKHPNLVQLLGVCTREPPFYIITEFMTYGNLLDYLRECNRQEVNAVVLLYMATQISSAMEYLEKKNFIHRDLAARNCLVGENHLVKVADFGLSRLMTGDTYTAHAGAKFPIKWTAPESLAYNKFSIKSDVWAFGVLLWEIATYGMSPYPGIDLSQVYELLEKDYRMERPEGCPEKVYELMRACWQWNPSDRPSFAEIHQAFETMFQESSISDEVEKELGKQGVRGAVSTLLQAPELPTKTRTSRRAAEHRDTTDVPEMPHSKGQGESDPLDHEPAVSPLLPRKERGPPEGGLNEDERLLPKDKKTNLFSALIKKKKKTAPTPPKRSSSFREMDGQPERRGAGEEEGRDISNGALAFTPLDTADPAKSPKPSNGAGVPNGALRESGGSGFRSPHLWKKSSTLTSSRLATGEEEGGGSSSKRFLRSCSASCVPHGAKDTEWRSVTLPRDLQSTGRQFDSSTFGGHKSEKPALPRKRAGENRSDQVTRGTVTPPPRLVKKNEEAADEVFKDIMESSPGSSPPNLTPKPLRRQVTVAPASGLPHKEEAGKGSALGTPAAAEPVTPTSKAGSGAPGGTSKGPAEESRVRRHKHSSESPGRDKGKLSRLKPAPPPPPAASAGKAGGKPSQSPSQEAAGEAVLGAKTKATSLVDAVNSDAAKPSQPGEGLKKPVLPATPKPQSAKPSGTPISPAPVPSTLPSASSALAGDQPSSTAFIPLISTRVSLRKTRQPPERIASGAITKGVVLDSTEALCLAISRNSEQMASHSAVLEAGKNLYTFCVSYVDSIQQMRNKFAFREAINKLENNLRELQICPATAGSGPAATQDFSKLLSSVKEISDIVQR
For another data set, the target named is FGR (Homo sapiens (Human), UniProt P09769). The data set can be described thus: Kinase screening assay (IC50).
Sequence of FGR (P09769 whole entry): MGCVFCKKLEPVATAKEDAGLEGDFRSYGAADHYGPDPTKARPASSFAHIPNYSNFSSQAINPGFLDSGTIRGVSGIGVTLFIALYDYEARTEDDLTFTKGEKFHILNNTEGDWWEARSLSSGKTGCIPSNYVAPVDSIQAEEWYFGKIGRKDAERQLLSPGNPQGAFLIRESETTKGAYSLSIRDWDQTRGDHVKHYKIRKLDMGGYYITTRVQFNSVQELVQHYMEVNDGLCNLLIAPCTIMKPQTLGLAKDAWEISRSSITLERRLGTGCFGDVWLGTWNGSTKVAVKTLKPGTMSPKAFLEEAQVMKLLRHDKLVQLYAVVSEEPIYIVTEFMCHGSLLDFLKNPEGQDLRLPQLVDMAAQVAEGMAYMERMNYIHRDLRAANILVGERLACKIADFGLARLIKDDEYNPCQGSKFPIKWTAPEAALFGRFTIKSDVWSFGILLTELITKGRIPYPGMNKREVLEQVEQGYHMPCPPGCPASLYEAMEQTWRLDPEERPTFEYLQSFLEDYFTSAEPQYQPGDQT
The target in a further data set is FYN (Homo sapiens (Human), UniProt P06241). Description: Kinase screening assay (IC50).
Sequence of FYN (P06241 whole entry): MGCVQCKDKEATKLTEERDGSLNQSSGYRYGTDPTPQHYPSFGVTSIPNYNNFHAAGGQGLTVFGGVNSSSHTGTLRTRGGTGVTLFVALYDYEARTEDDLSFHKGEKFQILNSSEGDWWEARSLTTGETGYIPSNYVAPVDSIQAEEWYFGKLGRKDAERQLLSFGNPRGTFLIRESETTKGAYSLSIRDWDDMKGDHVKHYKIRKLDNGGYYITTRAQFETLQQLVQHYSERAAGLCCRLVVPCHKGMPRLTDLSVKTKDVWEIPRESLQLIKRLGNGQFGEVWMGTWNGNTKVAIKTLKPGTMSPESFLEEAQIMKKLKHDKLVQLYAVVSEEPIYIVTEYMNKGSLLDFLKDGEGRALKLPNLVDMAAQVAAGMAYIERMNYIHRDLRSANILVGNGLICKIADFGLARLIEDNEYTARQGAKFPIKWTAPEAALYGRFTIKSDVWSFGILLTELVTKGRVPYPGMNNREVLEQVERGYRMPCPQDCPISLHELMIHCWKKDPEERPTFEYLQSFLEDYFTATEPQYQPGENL
The next data set has as its target BLK (Homo sapiens (Human), UniProt P51451). The data set can be described thus: Kinase screening assay (IC50).
For data set [2] the following is noted: rat, serum.
The target in a further data set is hERG channel (Homo sapiens (Human), UniProt Q12809). The data set can be described thus: hERG Safety Assay, Ionworks high-throughput electrophysiology.
For the next data set, the target named is CYP2C9 (Homo sapiens (Human), UniProt P11712). Description: CYP P450 inhibition.
Another data set has as its target CYP3A4 (Homo sapiens (Human), UniProt P08684). Description: CYP P450 inhibition.
A further data set concerns the target CYP2C19 (Homo sapiens (Human), UniProt P33261). The data set can be described thus: CYP P450 inhibition.
Another data set concerns the target FRK/PTK5 (Homo sapiens (Human), UniProt P42685). The data set can be described thus: Kinase screening assay (IC50).
The target in the next data set is CYP1A2 (Homo sapiens (Human), UniProt P05177). The data set can be described thus: in vitro.
A further data set concerns the target CYP2D6 (Homo sapiens (Human), UniProt P10635). Description: CYP P450 inhibition.
The target of the next data set is LYN (Homo sapiens (Human), UniProt P07948). The data set can be described thus: Kinase screening assay (IC50).
Sequence of LYN (P07948 whole entry): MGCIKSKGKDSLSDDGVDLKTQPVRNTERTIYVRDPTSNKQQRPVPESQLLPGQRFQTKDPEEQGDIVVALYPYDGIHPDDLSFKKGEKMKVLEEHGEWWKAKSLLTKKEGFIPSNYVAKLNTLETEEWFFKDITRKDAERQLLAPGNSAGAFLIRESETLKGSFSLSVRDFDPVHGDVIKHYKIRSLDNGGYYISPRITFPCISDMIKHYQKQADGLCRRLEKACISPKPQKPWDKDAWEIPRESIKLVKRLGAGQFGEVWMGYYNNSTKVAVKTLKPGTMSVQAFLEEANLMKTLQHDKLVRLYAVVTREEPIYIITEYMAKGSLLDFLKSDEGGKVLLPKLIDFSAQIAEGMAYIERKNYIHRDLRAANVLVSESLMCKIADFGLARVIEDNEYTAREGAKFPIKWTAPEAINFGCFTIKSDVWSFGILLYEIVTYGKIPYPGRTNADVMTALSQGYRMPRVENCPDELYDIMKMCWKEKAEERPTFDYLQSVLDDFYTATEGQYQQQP
The next data set concerns the target HCK (Homo sapiens (Human), UniProt P08631). The data set can be described thus: Kinase screening assay (IC50).
The conditions of data set [3]: human, serum.
[4] abbreviates: 10 μM ATP, read-out: Target inhibition (IC50) PDGFRa.
[5] abbreviates: read-out: Target inhibition (IC50) RET, 10 μM ATP.
Where [6] appears, read: 10 μM ATP, read-out: Target inhibition (IC50) mTOR.
[7] abbreviates: read-out: Target inhibition (IC50) YES, 10 μM ATP.
The mark [8] stands for this setting: read-out: Target inhibition (IC50) KIT, 10 μM ATP.
The mark [9] stands for this setting: 10 μM ATP, read-out: Target inhibition (IC50) ABL.
[10] abbreviates: read-out: Target inhibition (IC50) FGR, 10 μM ATP.
Where [11] appears, read: read-out: Target inhibition (IC50) LCK, 10 μM ATP.
[12] abbreviates: read-out: Target inhibition (IC50) BLK, 10 μM ATP.
Where [13] appears, read: read-out: Target inhibition (IC50) FRK/PTK5, 10 μM ATP.
Where [14] appears, read: read-out: Target inhibition (IC50) LYN, 10 μM ATP.
Where [15] appears, read: read-out: Target inhibition (IC50) HCK, 10 μM ATP.
Setting [16] is: read-out: Target inhibition (IC50) FYN, 10 μM ATP.

Sequence of PDGFRa (P16234 24-1089): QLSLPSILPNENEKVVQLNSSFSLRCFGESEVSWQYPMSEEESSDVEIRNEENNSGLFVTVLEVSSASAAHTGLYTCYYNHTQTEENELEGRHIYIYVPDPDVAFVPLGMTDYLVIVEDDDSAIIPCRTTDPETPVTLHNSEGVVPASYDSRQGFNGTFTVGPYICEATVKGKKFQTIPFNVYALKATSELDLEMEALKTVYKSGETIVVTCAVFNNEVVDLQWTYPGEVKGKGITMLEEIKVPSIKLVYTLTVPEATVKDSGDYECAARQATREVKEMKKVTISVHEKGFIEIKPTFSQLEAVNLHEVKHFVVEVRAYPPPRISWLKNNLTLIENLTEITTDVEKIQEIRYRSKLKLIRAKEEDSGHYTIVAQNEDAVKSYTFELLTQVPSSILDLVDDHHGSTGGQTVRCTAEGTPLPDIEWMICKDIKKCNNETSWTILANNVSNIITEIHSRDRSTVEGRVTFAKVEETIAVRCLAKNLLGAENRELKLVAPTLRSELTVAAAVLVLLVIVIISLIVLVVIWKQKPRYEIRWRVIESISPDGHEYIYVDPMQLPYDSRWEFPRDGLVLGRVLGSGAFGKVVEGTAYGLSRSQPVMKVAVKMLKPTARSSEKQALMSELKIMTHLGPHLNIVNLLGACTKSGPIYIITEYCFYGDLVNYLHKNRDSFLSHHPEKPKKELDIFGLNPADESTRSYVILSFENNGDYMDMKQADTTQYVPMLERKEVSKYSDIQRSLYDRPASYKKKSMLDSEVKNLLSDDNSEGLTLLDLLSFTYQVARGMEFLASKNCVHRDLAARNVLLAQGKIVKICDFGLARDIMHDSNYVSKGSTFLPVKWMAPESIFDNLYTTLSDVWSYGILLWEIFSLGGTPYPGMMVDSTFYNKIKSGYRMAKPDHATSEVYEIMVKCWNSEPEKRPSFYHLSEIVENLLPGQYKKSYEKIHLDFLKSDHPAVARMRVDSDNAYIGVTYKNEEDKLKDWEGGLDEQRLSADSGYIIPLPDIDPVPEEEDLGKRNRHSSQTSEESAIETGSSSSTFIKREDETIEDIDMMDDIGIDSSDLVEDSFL
Sequence of BLK (P51451 whole entry): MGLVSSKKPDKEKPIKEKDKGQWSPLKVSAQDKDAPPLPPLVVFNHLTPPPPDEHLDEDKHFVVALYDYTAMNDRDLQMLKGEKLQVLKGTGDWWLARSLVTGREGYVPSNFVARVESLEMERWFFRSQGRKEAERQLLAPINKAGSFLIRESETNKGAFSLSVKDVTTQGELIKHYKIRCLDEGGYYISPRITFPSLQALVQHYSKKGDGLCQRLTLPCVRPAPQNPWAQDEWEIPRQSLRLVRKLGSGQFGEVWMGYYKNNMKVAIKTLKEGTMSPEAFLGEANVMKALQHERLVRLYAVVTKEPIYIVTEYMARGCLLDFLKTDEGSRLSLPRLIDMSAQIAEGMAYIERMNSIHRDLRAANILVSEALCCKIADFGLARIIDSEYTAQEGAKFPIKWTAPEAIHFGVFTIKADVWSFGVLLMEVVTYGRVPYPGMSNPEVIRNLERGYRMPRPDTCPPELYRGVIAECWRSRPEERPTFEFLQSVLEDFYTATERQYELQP

As for `COc1cc(-c2nn(CCN3CCC(N(C)C)CC3)c3ncnc(N)c23)ccc1NC(=O)CCc1ccccc1` [Compound 531, N-[4-[4-amino-1-[2-[4-(dimethylamino)-1-piperidyl]ethyl]pyrazolo[3,4-d]pyrimidin-3-yl]-2-methoxy-phenyl]-3-phenyl-propanamide], the results for the EC50 (in the data set on MDA-MB-231 cells; in the data set on MCF7 cells; in [1]) were above 10 µM, 1 to 10 µM and above 10 µM, respectively.
As to `CN(C)C1CCN(CCn2nc(-c3ccc(NC(=O)OC(C)(C)C)cc3)c3c(N)ncnc32)CC1` [Compound 543], the IC50 at PDGFRa (setting [4]) was above 1 µM; at RET (setting [5]) it was above 1 µM; at mTOR (setting [6]) it was above 1 µM; against LCK, 0.01 to 0.1 µM; at YES (setting [7]), below 0.01 µM; on SRC, 0.01 to 0.1 µM. Also, the IC50 at KIT (setting [8]) was above 1 µM; at ABL (setting [9]) it was above 1 µM; at FGR (setting [10]), below 0.01 µM; against FYN, 0.1 to 1 µM.
For the compound `COc1cc(-c2nn(CCN3CCC(N(C)C)CC3)c3ncnc(N)c23)ccc1Cc1ncc(C)o1` [Compound 584, 1-[2-[4-(dimethylamino)-1-piperidyl]ethyl]-3-[3-methoxy-4-[(5-methyloxazol-2-yl)methyl]phenyl]pyrazolo[3,4-d]pyrimidin-4-amine], the IC50 at PDGFRa (setting [4]) was above 1 µM; on RET (setting [5]), above 1 µM; at mTOR (setting [6]), above 1 µM; at LCK (setting [11]), below 0.01 µM; at YES (setting [7]), below 0.01 µM; at SRC, 0.01 to 0.1 µM. Moreover, the IC50 at KIT (setting [8]) was above 1 µM; at ABL (setting [9]), above 1 µM; on FGR (setting [10]), below 0.01 µM; against FYN, 0.1 to 1 µM.
By fraction unbound is commonly meant free concentration divided by total concentration. The inhibition is the drop in the measured response relative to a control, in per cent. For the compound `COc1cc(-c2nn(CCN3CCC(N4CCCCC4)CC3)c3ncnc(N)c23)ccc1NC(=O)OC(C)(C)C` [Compound 519, tert-butyl N-[4-[4-amino-1-[2-[4-(1-piperidyl)-1-piperidyl]ethyl]pyrazolo[3,4-d]pyrimidin-3-yl]-2-methoxy-phenyl]carbamate], the IC50 is below 0.01 µM on BLK (read-out: Kinase Screening (IC50) BLK, Src Family); below 0.01 µM at BLK (setting [12]); above 1 µM on PDGFRa (setting [4]); above 1 µM at PDGFRa (read-out: Kinase Screening (IC50) PDGFRa); 12.6 µM against hERG channel; above 1 µM at RET (read-out: Kinase Screening (IC50) RET). Also, the IC50 on RET (setting [5]) is above 1 µM; on mTOR (setting [6]), above 1 µM; at mTOR (read-out: Kinase Screening (IC50) mTOR), above 1 µM; at LCK (read-out: Kinase Screening (IC50) LCK, Src Family) it was below 0.01 µM; at LCK (setting [11]), below 0.01 µM; on FRK/PTK5 (read-out: Kinase Screening (IC50) FRK, Src Family), below 0.01 µM. Also, the IC50 on FRK/PTK5 (setting [13]) was below 0.01 µM; on KIT (read-out: Kinase Screening (IC50) c-KIT), above 1 µM; at KIT (setting [8]) it was above 1 µM; on FGR (read-out: Kinase Screening (IC50) FGR, Src Family) it was below 0.01 µM; on FGR (setting [10]), below 0.01 µM; at LYN (read-out: Kinase Screening (IC50) LYN, Src Family) it was below 0.01 µM. Moreover, the IC50 is below 0.01 µM on LYN (setting [14]); below 0.01 µM at HCK (read-out: Kinase Screening (IC50) HCK, Src Family); below 0.01 µM on HCK (setting [15]); below 0.01 µM on FYN (read-out: Kinase Screening (IC50) FYN, Src Family); below 0.01 µM at FYN (setting [16]). The free fraction (fraction unbound) came to 0.106 in data set [2] and 0.143 in data set [3]. The inhibition at 10 µM at CYP2C9 was -70.3%; at CYP3A4 it was -12.1%; against CYP2C19 it was -3.1%; on CYP1A2, -1.6%; on CYP2D6 it was 3%.
For the compound `COc1cc(-c2nn(CCN3CCC(N(C)C)CC3)c3ncnc(N)c23)ccc1NC(=O)Cc1ccccc1` [Compound 530, N-[4-[4-amino-1-[2-[4-(dimethylamino)-1-piperidyl]ethyl]pyrazolo[3,4-d]pyrimidin-3-yl]-2-methoxy-phenyl]-2-phenyl-acetamide], the EC50 (with MDA-MB-231 cells; in the data set with MCF7 cells; in data set [1]) was above 10 µM throughout.
For `CN(C)C1CCN(CCn2nc(-c3cccc(NC(=O)OC(C)(C)C)c3)c3c(N)ncnc32)CC1` [Compound 542, tert-butyl N-[3-[4-amino-1-[2-[4-(dimethylamino)-1-piperidyl]ethyl]pyrazolo[3,4-d]pyrimidin-3-yl]phenyl]carbamate], the EC50 (with MDA-MB-231 cells; in the data set on MCF7 cells; in [1]) was above 10 µM throughout.
Turning to `COc1cc(-c2nn(CCN3CCC(CN(C)C)CC3)c3ncnc(N)c23)ccc1NC(=O)OC(C)(C)C` [Compound 503, tert-butyl N-[4-[4-amino-1-[2-[4-(dimethylaminomethyl)-1-piperidyl]ethyl]pyrazolo[3,4-d]pyrimidin-3-yl]-2-methoxy-phenyl]carbamate], the IC50 on BLK (setting [12]) was below 0.01 µM; at PDGFRa (setting [4]), above 1 µM; at PDGFRa (recombinant kinase, read-out: IC50 PDGFRα) it was above 10 µM; on RET it was above 10 µM; on RET (setting [5]) it was above 1 µM; on mTOR (setting [6]) it was above 1 µM. For the same compound, the IC50 is above 10 µM at mTOR (recombinant kinase, read-out: IC50 mTOR); below 0.01 µM on LCK (setting [11]); below 0.0005 µM on YES; below 0.01 µM at YES (setting [7]); below 0.01 µM at FRK/PTK5 (setting [13]); below 0.01 µM at SRC. The IC50 at KIT was 7.13 µM; at KIT (setting [8]), above 1 µM; at ABL (setting [9]), 0.1 to 1 µM; on ABL (recombinant kinase, read-out: IC50 Abl), 0.189 µM; on FGR (setting [10]), below 0.01 µM; on LYN (setting [14]), below 0.01 µM. For the same compound, the IC50 on HCK (setting [15]) was below 0.01 µM; against FYN, 0.0046 µM; on FYN (setting [16]), below 0.01 µM. For the same compound, at YES, the “potency (IC50) against Yes, in words” value is listed as “sub-nano molar”. For the same compound, the “potency (IC50) against Src, in words” value on SRC was “sub-nano molar”.
